According to publication PMC8500670, “A selective WDR5 degrader inhibits acute myeloid leukemia in patient-derived mouse models” (Science translational medicine, 2021):
Where two headings read alike, the source gives them in different places.

Assays:
M2 = target: T1, M2 (Homo sapiens, UniProt P08172); experiment: biochemical; set-up: GPCR, ion channel and transporter panel, per cent inhibition of binding, mean of four
T1 construct: gene CHRM2
Procedure: (§1) We next assessed selectivity of MS67 against 22 protein methyltransferases (table S2) and a broad panel of common drug targets including 45 kinases (table S3) and 44 G protein–coupled receptors (GPCR), ion channels, and transporters (table S4). […] We subsequently determined that MS67 had moderate binding affinity (Ki = 1.0 ± 0.8 μM) to Sigma 2 receptor (fig. S10).

5-HT1B [1] = target: T2, 5-HT1B (Homo sapiens, UniProt P28222); experiment: biochemical; set-up: GPCR, ion channel and transporter panel, per cent inhibition of binding, mean of four
T2 construct: gene HTR1B
T2 sequence (P28222 whole entry): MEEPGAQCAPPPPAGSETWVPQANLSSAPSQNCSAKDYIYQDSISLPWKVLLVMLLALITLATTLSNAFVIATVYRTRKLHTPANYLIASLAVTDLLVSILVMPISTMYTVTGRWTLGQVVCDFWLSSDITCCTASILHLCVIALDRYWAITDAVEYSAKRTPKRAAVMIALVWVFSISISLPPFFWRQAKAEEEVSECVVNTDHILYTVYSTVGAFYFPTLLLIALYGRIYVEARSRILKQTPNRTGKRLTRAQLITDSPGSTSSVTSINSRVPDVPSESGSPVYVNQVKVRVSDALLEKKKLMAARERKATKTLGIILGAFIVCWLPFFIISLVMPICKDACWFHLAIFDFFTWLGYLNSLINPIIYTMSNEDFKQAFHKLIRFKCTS
Procedure: as §1

5-HT1E = target: T3, 5-HT1E (Homo sapiens, UniProt P28566); experiment: biochemical; set-up: NIMH-PDSP radioligand binding assays, percent inhibition of radioligand binding, quadruplicate
T3 construct: gene HTR1E
T3 sequence (P28566 whole entry): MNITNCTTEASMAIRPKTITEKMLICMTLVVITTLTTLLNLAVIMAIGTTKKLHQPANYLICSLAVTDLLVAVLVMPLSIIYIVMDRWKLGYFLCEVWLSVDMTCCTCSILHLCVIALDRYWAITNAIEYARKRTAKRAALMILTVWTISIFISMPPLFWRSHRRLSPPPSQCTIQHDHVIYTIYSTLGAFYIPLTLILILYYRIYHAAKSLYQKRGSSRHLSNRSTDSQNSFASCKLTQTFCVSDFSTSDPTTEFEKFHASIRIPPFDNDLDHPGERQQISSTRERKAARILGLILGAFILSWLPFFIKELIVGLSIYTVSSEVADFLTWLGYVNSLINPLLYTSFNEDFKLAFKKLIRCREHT

5-HT2B = target: T4, 5-HT2B (Homo sapiens, UniProt P41595); experiment: biochemical; set-up: NIMH-PDSP radioligand binding assays, percent inhibition of radioligand binding, quadruplicate
T4 construct: gene HTR2B
T4 sequence (P41595 whole entry): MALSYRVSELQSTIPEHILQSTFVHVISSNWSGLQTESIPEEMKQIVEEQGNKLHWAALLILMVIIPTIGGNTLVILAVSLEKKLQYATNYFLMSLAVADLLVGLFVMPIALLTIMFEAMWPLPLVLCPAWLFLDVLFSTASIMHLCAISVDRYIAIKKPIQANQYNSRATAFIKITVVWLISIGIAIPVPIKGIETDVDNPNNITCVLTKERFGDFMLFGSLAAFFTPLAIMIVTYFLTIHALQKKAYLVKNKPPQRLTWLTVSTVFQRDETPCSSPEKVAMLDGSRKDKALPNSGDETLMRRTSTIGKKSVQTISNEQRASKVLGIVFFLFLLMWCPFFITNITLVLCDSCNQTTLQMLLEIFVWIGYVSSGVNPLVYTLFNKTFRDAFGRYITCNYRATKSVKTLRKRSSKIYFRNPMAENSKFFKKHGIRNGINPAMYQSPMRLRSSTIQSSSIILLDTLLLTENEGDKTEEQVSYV

NET = target: T5, NET (Homo sapiens, UniProt P23975); experiment: biochemical; set-up: NIMH-PDSP radioligand binding assays, percent inhibition of radioligand binding, quadruplicate
T5 construct: gene SLC6A2

SERT = target: T6, SERT (Homo sapiens, UniProt P31645); experiment: biochemical; set-up: NIMH-PDSP radioligand binding assays, percent inhibition of radioligand binding, quadruplicate
T6 construct: gene SLC6A4

D4 = target: T7, D4 (Homo sapiens, UniProt P21917); experiment: biochemical; set-up: NIMH-PDSP radioligand binding assays, percent inhibition of radioligand binding, quadruplicate
T7 construct: gene DRD4
T7 sequence (P21917 whole entry): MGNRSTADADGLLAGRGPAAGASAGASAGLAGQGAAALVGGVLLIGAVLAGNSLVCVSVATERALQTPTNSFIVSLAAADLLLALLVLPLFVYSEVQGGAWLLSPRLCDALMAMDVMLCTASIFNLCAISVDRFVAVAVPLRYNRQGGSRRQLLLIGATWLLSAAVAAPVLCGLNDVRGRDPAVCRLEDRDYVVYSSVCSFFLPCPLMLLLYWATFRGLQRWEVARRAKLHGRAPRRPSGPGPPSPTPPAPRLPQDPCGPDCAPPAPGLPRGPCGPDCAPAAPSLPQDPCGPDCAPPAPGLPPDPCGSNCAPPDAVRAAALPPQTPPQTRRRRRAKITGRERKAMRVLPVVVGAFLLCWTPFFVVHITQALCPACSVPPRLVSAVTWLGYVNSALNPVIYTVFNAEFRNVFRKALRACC

5-HT2C = target: T8, 5-HT2C (Homo sapiens, UniProt P28335); experiment: biochemical; set-up: NIMH-PDSP radioligand binding assays, percent inhibition of radioligand binding, quadruplicate
T8 construct: gene HTR2C
T8 sequence (P28335 whole entry): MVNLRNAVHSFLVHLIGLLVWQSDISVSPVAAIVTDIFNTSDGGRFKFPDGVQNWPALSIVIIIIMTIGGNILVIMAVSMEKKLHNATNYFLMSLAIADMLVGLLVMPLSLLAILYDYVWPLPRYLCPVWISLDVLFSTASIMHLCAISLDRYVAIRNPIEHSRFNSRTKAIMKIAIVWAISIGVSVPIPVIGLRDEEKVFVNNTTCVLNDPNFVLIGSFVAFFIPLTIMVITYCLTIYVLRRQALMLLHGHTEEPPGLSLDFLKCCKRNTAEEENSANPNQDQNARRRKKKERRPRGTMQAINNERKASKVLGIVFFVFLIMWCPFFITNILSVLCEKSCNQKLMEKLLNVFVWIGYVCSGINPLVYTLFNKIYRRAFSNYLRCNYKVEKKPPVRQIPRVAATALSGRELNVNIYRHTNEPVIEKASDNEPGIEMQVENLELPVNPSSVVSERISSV

5-HT1B [2] = target: T2, 5-HT1B; experiment: biochemical; set-up: NIMH-PDSP radioligand binding assays, percent inhibition of radioligand binding, quadruplicate
Alpha2C = target: T9, Alpha2C (Homo sapiens, UniProt P18825); experiment: biochemical; set-up: NIMH-PDSP radioligand binding assays, percent inhibition of radioligand binding, quadruplicate
T9 construct: gene ADRA2C

M5 = target: T10, M5 (Homo sapiens, UniProt P08912); experiment: biochemical; set-up: NIMH-PDSP radioligand binding assays, percent inhibition of radioligand binding, quadruplicate
T10 construct: gene CHRM5
T10 sequence (P08912 whole entry): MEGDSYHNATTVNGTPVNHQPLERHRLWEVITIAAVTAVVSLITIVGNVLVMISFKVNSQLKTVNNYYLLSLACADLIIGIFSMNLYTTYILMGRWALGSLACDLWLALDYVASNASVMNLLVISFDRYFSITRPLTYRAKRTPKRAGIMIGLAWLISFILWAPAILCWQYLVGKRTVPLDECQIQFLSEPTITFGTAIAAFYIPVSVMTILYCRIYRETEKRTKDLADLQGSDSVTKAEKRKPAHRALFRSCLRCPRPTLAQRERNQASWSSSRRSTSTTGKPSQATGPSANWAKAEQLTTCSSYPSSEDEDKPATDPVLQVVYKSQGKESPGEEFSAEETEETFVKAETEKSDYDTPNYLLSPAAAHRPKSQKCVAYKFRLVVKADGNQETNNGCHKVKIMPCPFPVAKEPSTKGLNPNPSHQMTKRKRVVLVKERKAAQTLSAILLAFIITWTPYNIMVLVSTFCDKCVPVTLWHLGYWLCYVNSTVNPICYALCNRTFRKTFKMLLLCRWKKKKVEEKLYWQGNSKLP

Beta2 = target: T11, Beta2 (Homo sapiens, UniProt P07550); experiment: biochemical; set-up: NIMH-PDSP radioligand binding assays, percent inhibition of radioligand binding, quadruplicate
T11 construct: gene ADRB2
T11 sequence (P07550 whole entry): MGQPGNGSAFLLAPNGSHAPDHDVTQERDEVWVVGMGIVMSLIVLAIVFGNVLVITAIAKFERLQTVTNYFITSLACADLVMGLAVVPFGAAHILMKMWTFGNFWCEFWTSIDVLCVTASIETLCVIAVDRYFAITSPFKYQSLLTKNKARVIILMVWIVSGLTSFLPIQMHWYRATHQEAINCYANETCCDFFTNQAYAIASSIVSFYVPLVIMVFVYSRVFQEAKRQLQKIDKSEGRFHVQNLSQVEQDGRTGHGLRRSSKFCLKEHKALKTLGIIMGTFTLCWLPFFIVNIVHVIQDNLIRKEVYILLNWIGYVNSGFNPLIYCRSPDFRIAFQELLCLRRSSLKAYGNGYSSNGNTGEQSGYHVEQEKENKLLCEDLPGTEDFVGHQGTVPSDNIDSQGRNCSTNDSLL

[3] = target: WDR5 (WD40 repeat domain protein 5) (Homo sapiens, UniProt P61964); experiment: ITC; […]-Å crystal structure of WDR5-MS67-VCB ternary complex; format: binding
IKKα = target: T12, IKKα (Homo sapiens, UniProt O15111); experiment: biochemical; set-up: kinase selectivity panel, single concentration, duplicate
T12 construct: gene CHUK
Procedure: as §1

cSRC = target: T13, cSRC (Homo sapiens, UniProt P12931); experiment: biochemical; set-up: kinase selectivity panel, single concentration, duplicate
T13 construct: gene SRC
Procedure: as §1

PKA = target: T14, PKA (Homo sapiens, UniProt P17612); experiment: biochemical; set-up: kinase selectivity panel, single concentration, duplicate
T14 construct: gene PRKACA
Procedure: as §1

CDK1/cyclinB = CDK1/cyclinB (Homo sapiens, UniProt P06493); experiment: biochemical; set-up: kinase selectivity panel, single concentration, duplicate
Sequence of CDK1/cyclinB (P06493 whole entry): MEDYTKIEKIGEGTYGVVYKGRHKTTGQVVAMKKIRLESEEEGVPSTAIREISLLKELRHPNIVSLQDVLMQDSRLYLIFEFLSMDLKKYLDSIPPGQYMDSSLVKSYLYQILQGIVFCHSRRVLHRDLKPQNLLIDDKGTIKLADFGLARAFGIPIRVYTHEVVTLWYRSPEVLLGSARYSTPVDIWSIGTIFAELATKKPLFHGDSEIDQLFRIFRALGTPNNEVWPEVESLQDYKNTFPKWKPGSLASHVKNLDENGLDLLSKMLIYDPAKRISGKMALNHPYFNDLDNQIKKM
Sequence of CDK1/cyclinB (P14635 whole entry partner): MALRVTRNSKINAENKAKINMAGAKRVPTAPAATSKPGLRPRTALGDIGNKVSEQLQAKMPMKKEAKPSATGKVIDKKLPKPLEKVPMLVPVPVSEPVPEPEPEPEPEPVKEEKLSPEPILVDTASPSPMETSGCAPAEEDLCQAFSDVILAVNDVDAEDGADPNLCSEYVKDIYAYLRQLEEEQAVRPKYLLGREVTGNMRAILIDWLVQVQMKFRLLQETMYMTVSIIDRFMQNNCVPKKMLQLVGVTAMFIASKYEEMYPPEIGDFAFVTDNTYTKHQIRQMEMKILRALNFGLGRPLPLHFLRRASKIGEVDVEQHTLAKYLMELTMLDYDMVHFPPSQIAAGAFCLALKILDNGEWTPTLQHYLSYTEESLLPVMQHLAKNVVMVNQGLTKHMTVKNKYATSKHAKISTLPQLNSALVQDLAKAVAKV
Procedure: as §1

MAP4K4 = MAP4K4 (Homo sapiens, UniProt O95819); experiment: biochemical; set-up: kinase selectivity panel, single concentration, duplicate
Procedure: as §1

KDR = KDR (Homo sapiens, UniProt P35968); experiment: biochemical; set-up: kinase selectivity panel, single concentration, duplicate
Procedure: as §1

CHK2 = target: T15, CHK2 (Homo sapiens, UniProt O96017); experiment: biochemical; set-up: kinase selectivity panel, single concentration, duplicate
T15 construct: gene CHEK2
T15 sequence (O96017 whole entry): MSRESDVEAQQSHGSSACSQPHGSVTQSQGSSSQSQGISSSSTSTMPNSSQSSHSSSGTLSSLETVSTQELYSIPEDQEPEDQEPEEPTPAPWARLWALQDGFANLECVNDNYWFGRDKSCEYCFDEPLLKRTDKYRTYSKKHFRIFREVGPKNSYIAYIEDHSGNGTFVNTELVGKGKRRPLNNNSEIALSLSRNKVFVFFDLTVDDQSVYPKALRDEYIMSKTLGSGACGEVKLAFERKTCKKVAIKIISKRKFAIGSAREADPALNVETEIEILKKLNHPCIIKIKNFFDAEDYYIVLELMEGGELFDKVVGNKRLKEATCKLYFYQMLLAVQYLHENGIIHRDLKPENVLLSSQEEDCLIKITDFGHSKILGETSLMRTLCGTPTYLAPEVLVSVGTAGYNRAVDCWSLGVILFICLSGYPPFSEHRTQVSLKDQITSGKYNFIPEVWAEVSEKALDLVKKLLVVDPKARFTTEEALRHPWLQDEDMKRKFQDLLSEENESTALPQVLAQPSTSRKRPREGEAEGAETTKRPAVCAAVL
Procedure: as §1

EphA3 = EphA3 (Homo sapiens, UniProt P29320); experiment: biochemical; set-up: kinase selectivity panel, single concentration, duplicate
Procedure: as §1

Pim-2 = target: T16, Pim-2 (Homo sapiens, UniProt Q9P1W9); experiment: biochemical; set-up: kinase selectivity panel, single concentration, duplicate
T16 construct: gene PIM2
Procedure: as §1

FGFR1 = FGFR1 (Homo sapiens, UniProt P11362); experiment: biochemical; set-up: kinase selectivity panel, single concentration, duplicate
Procedure: as §1

CDK2/cyclinA = CDK2/cyclinA (Homo sapiens, UniProt P24941); experiment: biochemical; set-up: kinase selectivity panel, single concentration, duplicate
Procedure: as §1

MAPKAP-K2 = target: T17, MAPKAP-K2 (Homo sapiens, UniProt P49137); experiment: biochemical; set-up: kinase selectivity panel, single concentration, duplicate
T17 construct: gene MAPKAPK2
Procedure: as §1

Lck = Lck (Homo sapiens, UniProt P06239); experiment: biochemical; set-up: kinase selectivity panel, single concentration, duplicate
Procedure: as §1

PDK1 = target: T18, PDK1 (Homo sapiens, UniProt O15530); experiment: biochemical; set-up: kinase selectivity panel, single concentration, duplicate
T18 construct: gene PDPK1
Procedure: as §1

von Hippel–Lindau (VHL) = von Hippel–Lindau (VHL) (Homo sapiens, UniProt P40337); experiment: ITC; […]-Å crystal structure of WDR5-MS67-VCB ternary complex; format: binding
Sequence of von Hippel–Lindau (VHL) (P40337 whole entry): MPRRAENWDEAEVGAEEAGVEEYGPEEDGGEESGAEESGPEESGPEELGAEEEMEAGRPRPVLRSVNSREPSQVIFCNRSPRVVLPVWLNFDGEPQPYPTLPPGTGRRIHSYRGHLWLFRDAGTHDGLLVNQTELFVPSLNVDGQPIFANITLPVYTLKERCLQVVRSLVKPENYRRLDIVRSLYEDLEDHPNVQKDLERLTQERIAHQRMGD
Sequence of von Hippel–Lindau (VHL) (Q15369 whole entry partner): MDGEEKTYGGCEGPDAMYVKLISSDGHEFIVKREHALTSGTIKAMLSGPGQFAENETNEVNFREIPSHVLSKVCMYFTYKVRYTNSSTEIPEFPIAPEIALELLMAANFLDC
Sequence of von Hippel–Lindau (VHL) (Q15370 whole entry partner): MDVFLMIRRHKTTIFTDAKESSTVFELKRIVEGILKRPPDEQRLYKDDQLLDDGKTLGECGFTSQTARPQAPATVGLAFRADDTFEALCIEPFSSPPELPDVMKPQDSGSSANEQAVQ

Cc1ncsc1-c1ccc([C@H](C)NC(=O)[C@@H]2C[C@@H](O)CN2C(=O)[C@@H](NC(=O)CNC(=O)c2ccc(F)c(-c3ccc(N4C[C@@H](C)N(C)[C@@H](C)C4)c(NC(=O)c4c[nH]c(=O)cc4C(F)(F)F)c3)c2)C(C)(C)C)cc1 [MS67]
< 10%: inhibition at 1 µM (5-HT1E) | inhibition at 1 µM (5-HT2B) | inhibition at 1 µM (NET) | inhibition at 1 µM (SERT) | inhibition at 1 µM (D4) | inhibition at 1 µM (5-HT2C) | inhibition at 1 µM (5-HT1B [2]) | inhibition at 1 µM (Alpha2C) | inhibition at 1 µM (M5) | inhibition at 1 µM (Beta2) | inhibition at 1 µM (IKKα) | inhibition at 1 µM (cSRC) | inhibition at 1 µM (PKA) | inhibition at 1 µM (CDK1/cyclinB) | inhibition at 1 µM (MAP4K4) | inhibition at 1 µM (KDR) | inhibition at 1 µM (CHK2) | inhibition at 1 µM (EphA3) | inhibition at 1 µM (Pim-2) | inhibition at 1 µM (FGFR1) | inhibition at 1 µM (CDK2/cyclinA) | inhibition at 1 µM (MAPKAP-K2) | inhibition at 1 µM (Lck) | inhibition at 1 µM (PDK1)
63 ± 10 nM: Kd [3]
5.37%: inhibition at 1 µM (5-HT1B [1])
140 ± 7.2 nM: Kd (von Hippel–Lindau (VHL))
31.1%: inhibition at 1 µM (M2)
